# Measured values reported in patent US20250136553A1, “ACYLSULFONAMIDE KAT6A INHIBITORS” (Olema Pharmaceuticals, Inc., priority 2023, published 2025).
# Biological target: human-KAT6A (MYST domain 507-778 aa) (Homo sapiens (Human), UniProt Q92794)
# Assay: KAT6A biochemical assay (TR-FRET)
# Settings: TR-FRET; histone H4 peptide 200 nM, acetyl-CoA 600 nM; read-out: KAT6A IC50
# Summary of the method: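 KAT6A MYST domain preincubated with compound 30 min at 25° C, then reacted 60 min at 25° C with 200 nM biotin-H4 peptide and 600 nM acetyl-CoA (final). Europium anti-acetyl-lysine/streptavidin-APC TR-FRET read (Ex 340, Em 615/665 nm); % inhibition from 665/615 ratio, IC50 by sigmoidal fit.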
# Chain of human-KAT6A (MYST domain 507-778 aa) (Q92794 507-778): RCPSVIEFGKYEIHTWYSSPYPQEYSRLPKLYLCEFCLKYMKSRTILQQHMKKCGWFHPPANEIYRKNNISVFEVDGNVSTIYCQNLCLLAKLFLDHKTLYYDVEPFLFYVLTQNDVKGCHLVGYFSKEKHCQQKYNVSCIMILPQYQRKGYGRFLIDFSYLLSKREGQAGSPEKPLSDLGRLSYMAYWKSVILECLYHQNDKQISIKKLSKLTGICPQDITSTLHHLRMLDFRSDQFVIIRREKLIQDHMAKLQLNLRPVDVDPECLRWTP
smiles,measurement,value
"COc1cc(C(=O)NS(=O)(=O)c2cccc3c2OC(C)C3)ccc1Cn1cccn1 (stereo not shown) [Compound 314, 4-((1H-pyrazol-1-yl)methyl)-3-methoxy-N-((2-methyl-2,3-dihydrobenzofuran-7-yl)sulfonyl)benzamide]",IC50,13 nM
